Data published in patent US11690899B2, “Combination of bactericidal agent with a lysosomotropic alkalinising agent for the treatment of a bacterial infection” (priority 2015, dated 2023).

How the values were obtained:
[1] = tested on: S. aureus Cowan; test: S. aureus Cowan-infected A549 cells treated with flucloxacillin and lysosomotropic alkalinizing agents (intracellular persisters, SCVs); assay type: cell-based, Staphylococcus aureus; details: for effect on phagolysosomal pH: infected host cells
Experimental: Reduction of S. aureus persisters through phagolysosome alkalinization. S. aureus Cowan-infected A549 cells were treated with flucloxacillin alone (control) or supplemented with lysosomotropic alkalinizing agents (chloroquine (a), bafilomycin A1 (b) and ammonium chloride (c)). Colony phenotypes of viable intracellular persisting bacteria were determined and enumerated at indicated time points. Data were pooled from three independent experiments done in triplicates, mean±SEM. Two-way ANOVA found the factors time and treatment to be significant (p-value<0.01).
MSSA strain Cowan is highly invasive, but not cytotoxic which allowed maintaining this strain intracellularly over several days in the lung epithelial cell line A549. Extracellular bacteria were killed by adding a high dose of flucloxacillin to the infected host cells. Flucloxacillin is typically used to treat S. aureus endocarditis in patients. Absence of extracellular bacteria was confirmed by sterility of culture supernatants. Host cells were lysed to release intracellular bacteria and colony counts, as well as colony phenotypes, were determined at various time points. […] The number of viable intracellular persisting bacteria decreased during the course of infection while the frequency of SCVs increased and reached 5.6% after seven days.
No differences in total colony counts between control and treated cells were observed. […] No significant differences in host cell viability were observed after treatment with the alkalinizing agents.
Growth resumption of S. aureus persisters through treatment of host cells with chloroquine was assessed. […] We observed no dividing bacteria in infected host cells without chloroquine treatment.

[2] = tested on: S. aureus Cowan; test: In vivo infection model: mice infected intraperitoneally with S. aureus Cowan; set-up: species or system Staphylococcus aureus
Experimental: Mice were infected with S. aureus Cowan intraperitoneally. Six hours and two days post-infection mice were treated with 1 mg flucloxacillin and 0.2 mg chloroquine (+CQ). Mice treated with flucloxacillin only served as control (−CQ). †, sacrifice (a). Colony phenotypes of bacteria recovered from target tissues (b), peripheral blood and peritoneal lavage (c) were determined and enumerated. Each point represents one mouse. Horizontal bars indicate mean±SEM, n=11 mice per group. PL, peritoneal lavage. Two-way ANOVA found the factor treatment to be significant (p-value<0.01).
Mice infected with S. aureus Cowan were treated with flucloxacillin alone (control), or in combination with chloroquine (FIG. 5a).

| SMILES | effect on phagolysosomal pH [1] | bacterial cell division (transmission electron microscopy) ([1]; three days post-infection, vs host cells without chloroquine) | frequency of SCVs in various organs and compartments ([2]; 1 mg flucloxacillin and 0.2 mg chloroquine at six hours and two days post-infection vs flucloxacillin only) | absolute bacterial numbers ([2]; flucloxacillin with vs without chloroquine) |
| --- | --- | --- | --- | --- |
| CO/C1=C\C(C)=C\[C@@H](C)[C@@H](O)[C@@H](C)C/C(C)=C/C=C/[C@H](OC)[C@@H]([C@@H](C)[C@@H](O)[C@H](C)[C@@]2(O)C[C@@H](O)[C@H](C)[C@@H](C(C)C)O2)OC1=O [bafilomycin A1] | neutralized the phagolysosomal pH |  |  |  |
| CCN(CC)CCCC(C)Nc1ccnc2cc(Cl)ccc12 (stereo not drawn) [Chloroquine, chloroquine] | neutralized the phagolysosomal pH | facilitated bacterial cell division | significantly reduced | comparable |
| Cl.N [ammonium chloride] | neutralized the phagolysosomal pH |  |  |  |
